Like-named read-outs stand apart in the source and are kept apart here. Where no end group is shown, it is not given here.
What was measured:
E. coli K88 = experiment: Time-kill (bactericidal) curve; assay type: cell-based, Escherichia coli; settings: four times MIC, TSB, 37°C
Method: (§1) The antibacterial activity was evaluated using a standard MIC and MBC assay according to the National Committee for Clinical Laboratory Standards (NCCLS). MIC, MBC assay, and time-kill curves for the optimal peptide are provided in the Supplementary Materials.
(§2) The bactericidal curve of the optimal peptide was further determined. […] Each test was replicated at least 3 times.

E. coli K88 biofilm = experiment: Anti-biofilm assay (crystal violet); assay type: cell-based, Escherichia coli
Method: (§3) The anti-biofilm activity of DiPGLa-H was evaluated using a crystal violet staining method. Briefly, 100 µL of bacterial suspension at 1 × 10^6 CFU/mL was incubated with DiPGLa-H (0–64 µM) for 48 h. The biofilm formed was stained with 1% crystal violet, and the absorbance was measured at 595 nm. The biofilm formation and mature biofilm removal assays were conducted. For biofilm formation, a bacterial suspension was incubated with DiPGLa-H, and biofilm content was quantified. To assess mature biofilm removal, pre-formed biofilms were treated with DiPGLa-H for 24 h, followed by quantification. Detailed Protocol in Supplementary Materials.
(§4) To test the ability of DiPGLa-H to […] on the test bacteria, a single colony was inoculated in MHB medium and incubated overnight at 37 °C and 180 r/min, and 1% of the bacterial suspension was taken and continued to be amplified and incubated for 2 h. […] The biofilm content was analyzed by measuring the absorbance value at 595 nm, and anhydrous ethanol was used as a blank control. […]

Gram-positive bacteria = experiment: Geometric mean MIC and therapeutic index, Gram-positive; assay type: cell-based; settings: geometric mean of the peptide MICs against Gram-positive strains
Method: as §1
(§5) Antimicrobial Activity Assays. The antibacterial activity of the peptides was determined using a method designed from the National Committee for Clinical Laboratory Standards (NCCLS) in the United States. All the strains used in the experiment are preserved in the laboratory. Briefly, log phase bacterial cells were diluted in MHB to a final concentration of 0.5-1x10^5 CFU/mL. Subsequently, 50μL of different concentrations of polypeptides were incubated with 50 μL of bacterial solution in sterile 96-well plates. In the minimum inhibitory concentration (MIC) assay, the plate was incubated at 37°C for 24 h, and the minimum inhibitory concentration (MIC) was determined by the absorbance at 492 nm of the microplate reader, and the minimum inhibitory concentration (MIC) inhibited 95% of bacteria grow. Determination of minimum bactericidal concentration: the plate was incubated at 37°C for 4 hours, 50 μL of the mixture was taken out of each well, diluted with an appropriate amount of PBS, smeared on the agar plate, and cultured overnight. Colonies were counted and the initial CFU/well was retrospectively calculated the following day. The lowest concentration of peptide that kills 99.9% of bacterial cells is the minimum bactericidal concentration (µM), Each test was replicated at least 3 times.

E. coli K88 infection = experiment: Mouse abdominal infection model; assay type: in vivo, C57BL/6 mice; settings: for number of mice that survived: K88+DiPGLa-H
Method: (§6) Six-to-eight-week-old C57BL/6 male mice were selected for the experiment and housed in cages under specific pathogen-free conditions with water and laboratory mouse chow. Each strain was divided into three groups, and each group and the second group were required to be injected intraperitoneally with a lethal amount of bacterial fluid with a working fluid concentration of 64 µg/mL of DiPGLa-H, and the third group was injected with PBS. […] Then homogenized and serially diluted with PBS to 10^7 times. 100 µL of the gradient dilution was applied to the TSA plate, which was subsequently incubated at 37°C overnight and counted the next day for survival analysis using GraphPad Prism software. The protocol and use of animals were approved by the Institutional Animal Care and Use Committee of the Northwest A&F University.

S. aureus Mu50 infection = experiment: Mouse abdominal infection model; assay type: in vivo, C57BL/6 mice; settings: for number of mice that survived: Mu50+DiPGLa-H
Method: as §6

S. aureus Mu50 [1] = experiment: Time-kill (bactericidal) curve; assay type: cell-based, Staphylococcus aureus MRSA; settings: four times MIC, TSB, 37°C
Method: as §1, §2

S. aureus Mu50 [2] = assay type: cell-based, Staphylococcus aureus MRSA
Method: as §1, §5

S. aureus Mu50 biofilm = experiment: Anti-biofilm assay (crystal violet); assay type: cell-based, Staphylococcus aureus MRSA
Method: as §3, §4

S. aureus ATCC29213 = assay type: cell-based, Staphylococcus aureus
Method: as §1, §5

[3] = 1×10^6 CFU/mL, DiPGLa-H 0-64 µM, 48 h, crystal violet, 595 nm
[4] = pre-formed biofilm treated with DiPGLa-H 0-64 µM for 24 h
[5] = heart, liver, spleen, 1 day after infection, 5 mice per group

**Q.** Which results are given for “KIAKVALKALKIAKVALKAL-NH2 (C-terminus assumed) [DiPGLa-H]”?
**A.** time to complete eradication of E. coli K88 (E. coli K88): ≤ 30 min; concentration for effective inhibition of biofilm formation (E. coli K88 biofilm; [3]): above 4 µM; concentration effectively eradicating biofilms (E. coli K88 biofilm; [4]): above 16 µM; GMMIC Gram-positive (Gram-positive bacteria): 5.66 µM; number of mice that survived (E. coli K88 infection; day 1, of 16 mice): 13; number of mice that survived (E. coli K88 infection; day 2, of 16 mice): 12; number of mice that survived (E. coli K88 infection; day 3, of 16 mice): 10; number of mice that survived (E. coli K88 infection; day 4, of 16 mice): 9; number of mice that survived (E. coli K88 infection; day 5, of 16 mice): 9; number of mice that survived (E. coli K88 infection; day 6, of 16 mice): 9; number of mice that survived (E. coli K88 infection; day 7, of 16 mice): 9; number of mice that survived (E. coli K88 infection; day 8, of 16 mice): 9; reduction of bacterial loads in the organs (E. coli K88 infection; [5]): 1,000 fold; increase of survival rate of mice (S. aureus Mu50 infection; C57BL/6 male mice, intraperitoneal lethal Mu50, DiPGLa-H working concentration 64 µg/mL, 16 mice per group): 31%; number of mice that survived (S. aureus Mu50 infection; day 1, of 16 mice): 12; number of mice that survived (S. aureus Mu50 infection; day 2, of 16 mice): 11; number of mice that survived (S. aureus Mu50 infection; day 3, of 16 mice): 10; number of mice that survived (S. aureus Mu50 infection; day 4, of 16 mice): 8; number of mice that survived (S. aureus Mu50 infection; day 5, of 16 mice): 6; number of mice that survived (S. aureus Mu50 infection; day 6, of 16 mice): 6; number of mice that survived (S. aureus Mu50 infection; day 7, of 16 mice): 5; number of mice that survived (S. aureus Mu50 infection; day 8, of 16 mice): 5; reduction of bacterial loads in the organs (S. aureus Mu50 infection; [5]): 100 fold; fold higher TIall vs kiadin-2: 2.5 fold; time to complete eradication of S. aureus Mu50 (S. aureus Mu50 [1]): 6 h; MBC S. aureus Mu50 (S. aureus Mu50 [2]; Mu50, 4 h): 16 µM; MIC S. aureus Mu50 (S. aureus Mu50 [2]; Mu50, 24 h): 8 µM; MIC S. aureus Mu50 (S. aureus Mu50 [2]; lowest concentration inhibiting 95% of growth, MHB, 0.5-1x10^5 CFU/mL, 37°C 24 h, absorbance 492 nm, three independent experiments): 8 µM; inhibition of biofilm formation (S. aureus Mu50 biofilm; [3]): inhibition at higher concentrations; concentration effectively eradicating biofilms (S. aureus Mu50 biofilm; [4]): above 16 µM; MBC S. aureus ATCC29213 (S. aureus ATCC29213; ATCC29213, 4 h): 4 µM; MIC S. aureus ATCC29213 (S. aureus ATCC29213; ATCC29213, 24 h): 4 µM
